From patent US20060140858A1, “Drug pre-targeting by means of bi-specific antibodies and hapten constructs comprising a carrier peptide and the active agent(s)” (Immunomedics, Inc., priority 2002, published 2006)
Read-outs that look alike come from different tables or passages of the source. *1 amine or outer side, *2 acyl side, *3 side chain or, on linkers, in order; H or OH if unused. Where a SMILES comes first, the peptide text is derived from it. Side-chain parts run from the residue outwards. [ ]: non-standard residue; d: D form. The star is where a group is joined. HSG = histamine succinyl glycyl group, O=C(CCC(=O)NCC(=O)*)NCCc1c[nH]cn1; DOTA = O=C(O)CN1CCN(CC(=O)O)CCN(CC(=O)*)CCN(CC(=O)O)CC1; NH(2-(imidazol-4-yl)ethyl) = c1ncc(CCN*)[nH]1; Suc = O=C(CCC(=O)[*:2])[*:1]

What was measured:
[1] = mouse, in vivo; cited from earlier work
[2] = format: in vitro ADME, mouse
Source text: The peptide was monitored as described above by HPLC.

[3] = tested on: GW-39; assay: Comparison of ^177Lu-IMP-241 and ^111In-IMP-241 pretargeting using hMN-14 × m679 F(ab′)2 bsMAb (24 h bsMAb clearance); format: in vivo, nude mice; conditions: listed as 111In-IMP-241
Description: (§1) Female NCr nude mice Charles River Laboratories, Inc., Fredrick Md. or Taconic, Germantown, N.Y.) approximately 6 weeks of age were implanted subcutaneously with 0.2 ml of this suspension. Two to three weeks after implantation of tumors, animals were injected with the radiolabeled peptide alone, or for pretargeting, with the bsMAb followed 1 to 2 days later with the radiolabeled peptide. […] At the designated times after the peptide injection, animals were anesthetized, bled by cardiac puncture, and then euthanized prior to necropsy. Tissues were removed, weighed and counted by gamma scintillation using appropriate windows for each radionuclide along with standards prepared from the injected materials. When dual isotope counting was used, appropriate backscatter correction was made. GI tissues (stomach, small intestine and large intestine were weighed and counted with their contents. Data are expressed as the percent injected dose per gram tissue (% ID/g) and the ratio of the percentages in the tumor to the normal tissues (T/NT). All values presented in the tables and figures represent the mean and standard deviation of the calculated values with the number of animals used for each study provided therein.

[4] = tested on: GW-39; design: species or system nude mice; conditions: mouse, in vivo
Description: as §1

[5] = Comparison of ^177Lu-IMP-241 and ^111In-IMP-241 pretargeting using hMN-14 × m679 F(ab′)2 bsMAb (24 h bsMAb clearance); format: in vivo, nude mice; conditions: female, NCr nude, mouse, iv, total radioactivity, read-out: Percent Injected Dose Per Gram; for tissue uptake at 3 h: 3 hour after peptide; for tissue uptake at 24 h: 24 hour after peptide
Description: as §1

[6] = in vivo; design: species or system nude mice; conditions: female, NCr nude, mouse, total radioactivity, % ID/g
Description: as §1, with “GW-39, a CEA-producing human colon cancer cell line (See, Goldenberg, D. M. and Hansen, H. […] Female” for “Female”, “suspension.” for “suspension. Two to three weeks after implantation of tumors, animals were injected with the radiolabeled peptide alone, or for pretargeting, with the bsMAb followed 1 to 2 days later with the radiolabeled peptide.”

[7] = tested on: GW-39; assay: in vivo; design: species or system nude mice; conditions: mouse
Description: as §1, with “GW-39, a CEA-producing human colon cancer cell line (See, Goldenberg, D. M. and Hansen, H. […] Female” for “Female”, “suspension.” for “suspension. Two to three weeks after implantation of tumors, animals were injected with the radiolabeled peptide alone, or for pretargeting, with the bsMAb followed 1 to 2 days later with the radiolabeled peptide.”

[8] = tested on: 679 IgG; assay: Binding of labeled peptide to excess 679 IgG by size exclusion HPLC; design: species or system murine; conditions: ^90Y labeled peptide
Description: The ^90Y (˜400 μCi/kit) was diluted to 1 mL in deionized water and added to the lyophilized kits. The kits were heated in a boiling water bath for 15 min, the vials were cooled to room temperature and the labeled peptides were evaluated by reverse phase HPLC (HPLC conditions: Waters Nova-Pak C-18, 8×100 mm RCM column eluted at 3 mL/min with a linear gradient from 100% (0.1% TFA in H2O) to 100% (90% CH3CN, 0.1% TFA, 10% H2O)).
The ^111In (˜300 μCi/kit) was diluted to 0.5 mL in deionized water and added to the lyophilized kits. The kits were heated in a boiling water bath for 15 min, the vials were cooled and 0.5 mL of 2.56×10^−5 M In in 0.5 M acetate buffer was added and the kits were again heated in the boiling water bath for 15 min. The labeled peptide vials were cooled to room temperature and evaluated by reverse phase HPLC (HPLC conditions: Waters Nova-Pak C-18, 8×100 mm RCM column eluted at 3 mL/min with a linear gradient from 100% (0.1% TFA in H2O) to 100% (90% CH3CN, 0.1% TFA, 10% H2O)).
The mixture was centrifuged and DTPA was added to a final concentration of 3 mM. After 15 min at room temperature, the final volume was raised to 1.0 mL with 0.1 M sodium acetate, pH 6.5. The amount of unbound isotope was determined by reverse phase HPLC and ITLC developed in saturated sodium chloride solution. […]

[9] = tested on: GW-39 tumor; assay: Tumor/nontumor ratios for directly labeled ^99mTc-hMN-14 Fab′; format: in vivo, nude mice; conditions: 3 h after injection
Description: (§2) Humanized MN-14 (hMN-14) Fab′-SH was prepared in a similar manner as described previously. ^99mTc-pertechnetate (30 mCi) was added directly to the lyophilized hMN-14-Fab′-SH (1.0 mg) and injected in animals within 30 minutes. This product had 3.0% unbound ^99mTc by ITLC and an immunoreactive fraction of 92%.
as §1

[10] = Immunoreactive fraction of ^99mTc-hMN-14 Fab′; format: binding
Description: as §2

[11] = tested on: hMN-14 Fab′×734 Fab′; assay: HPLC complexation of In-111 carboxylesterase-DTPA with bi-specific antibody; format: binding; conditions: 20-fold molar excess of hMN-14 Fab′×734 Fab′
Description: (§3) After 1 hour of incubation, the mixture is pre-purified on two 5-mL spin-columns (Sephadex G50/80 in 0.1 M sodium phosphate pH 7.3) to remove excess reagent and DMSO. The eluate is purified on a TSK 3000G Supelco column using 0.2 M sodium phosphate pH 6.8 at 4 ml/min. The fraction containing conjugate is concentrated on a Centricon-10™ concentrator, and buffer-exchanged with 0.1 M sodium acetate pH 6.5. […] Incorporation by HPLC and ITLC analyses is 97.7%.

[12] = Enzymatic analysis of carboxylesterase-DTPA conjugate; format: biochemical, rabbit
Description: as §3

Molecule: COc1cccc2c1C(=O)c1c(O)c3c(c(O)c1C2=O)C[C@@](O)(C(=O)CO)C[C@@H]3O[C@H]1C[C@H](N)[C@H](O)[C@H](C)O1 [Doxorubicin]
- hepatobiliary clearance [1]: ~95%

Molecule: NC(=O)[C@H](CCCCNC(=O)CNC(=O)CCC(=O)NCCc1cnc[nH]1)NC(=O)[C@@H](Cc1ccc(O)cc1)NC(=O)[C@H](CCCCNC(=O)CNC(=O)CCC(=O)NCCc1cnc[nH]1)NC(=O)[C@H](Cc1ccccc1)NC(=O)CN1CCN(CC(=O)O)CCN(CC(=O)O)CCN(CC(=O)O)CC1 [IMP 241, DOTA-Phe-Lys(HSG)-D-Tys-Lys(HSG)-NH2] ({DOTA}-FK([Gly-Suc-NH(2-(imidazol-4-yl)ethyl)])[dY]K([Gly-Suc-NH(2-(imidazol-4-yl)ethyl)])-NH2)
- decomposed in mouse serum [2]: ~5%
- Percent Injected Dose Per Gram ([3]; Blood, 3 hour after peptide): 1.87 ± 0.97 % ID/g
- Percent Injected Dose Per Gram ([3]; Kidney, 3 hour after peptide): 3.00 ± 0.87 % ID/g
- Percent Injected Dose Per Gram ([3]; Liver, 3 hour after peptide): 0.57 ± 0.24 % ID/g
- Percent Injected Dose Per Gram ([3]; Lungs, 3 hour after peptide): 0.81 ± 0.33 % ID/g
- Percent Injected Dose Per Gram ([3]; Lungs, 24 hour after peptide): 0.24 ± 0.07 % ID/g
- Percent Injected Dose Per Gram ([3]; Tumor, 3 hour after peptide): 8.76 ± 2.31 % ID/g
- Percent Injected Dose Per Gram ([3]; Tumor, 24 hour after peptide): 2.54 ± 1.04 % ID/g
- increase of tumor accretion by pretargeting compared to the peptide alone [4]: ~100 fold

Molecule: NC(=O)[C@H](CCCCNC(=O)CNC(=O)CCC(=O)NCCc1cnc[nH]1)NC(=O)[C@@H](Cc1ccc(O)cc1)NC(=O)[C@H](CCCCNC(=O)CNC(=O)CCC(=O)NCCc1cnc[nH]1)NC(=O)[C@H](Cc1ccccc1)NC(=O)CN1CCN(CC(=O)O)CCN(CC(=O)O)CCN(CC(=O)O)CC1 [^177Lu-IMP-241, metal not drawn] ({DOTA}-FK([Gly-Suc-NH(2-(imidazol-4-yl)ethyl)])[dY]K([Gly-Suc-NH(2-(imidazol-4-yl)ethyl)])-NH2)
- tissue uptake at 3 h ([5]; blood, Blood): 1.48 ± 0.19 %ID/g
- tissue uptake at 24 h ([5]; blood, Blood): 0.36 ± 0.05 %ID/g
- tissue uptake at 3 h ([5]; kidney, Kidney): 3.61 ± 0.43 %ID/g
- tissue uptake at 24 h ([5]; kidney, Kidney): 0.18 ± 0.03 %ID/g
- tissue uptake at 3 h ([5]; liver, Liver): 0.46 ± 0.08 %ID/g
- tissue uptake at 24 h ([5]; liver, Liver): 0.17 ± 0.04 %ID/g
- tissue uptake at 3 h ([5]; lungs, Lungs): 0.64 ± 0.12 %ID/g
- tissue uptake at 24 h ([5]; lungs, Lungs): 0.17 ± 0.02 %ID/g
- tissue uptake at 3 h ([5]; spleen, Spleen): 0.36 ± 0.04 %ID/g
- tissue uptake at 24 h ([5]; spleen, Spleen): 0.29 ± 0.07 %ID/g
- tissue uptake at 3 h ([5]; tumor, Tumor): 9.71 ± 2.49 %ID/g
- tissue uptake at 24 h ([5]; tumor, Tumor): 2.59 ± 0.3 %ID/g
- tissue uptake at 48 h [6]: 0.94 ± 0.2 %ID/g
- decrease in kidneys compared to the level seen at 24 h [7]: ~45%

Molecule: ^90Y-IMP-241: IMP 241 divalent HSG-DOTA peptide radiolabeled with ^90Y ({DOTA}-FK(HSG)YK(HSG)-NH2; not fully specified (residue 3); also: DOTA loaded with 90Y)
- binding to excess 679 IgG by size exclusion HPLC [8]: binding to the antibody

Molecule: ^99mTc-hMN-14 Fab′: humanized MN-14 anti-CEA Fab′ directly radiolabeled with ^99mTc
- Tumor/nontumor ratio ([9]; Blood): 1.0 ± 0.01
- Tumor/nontumor ratio ([9]; Kidney): 0.02 ± 0.001
- Tumor/nontumor ratio ([9]; Liver): 0.2 ± 0.02
- Tumor/nontumor ratio ([9]; Lungs): 0.7 ± 0.1
- Tumor/nontumor ratio ([9]; Spleen): 0.9 ± 0.4
- immunoreactive fraction [10]: 92%

B1: Carboxylesterase-DTPA (conjugate)
chain: HPSAPPVVDTVHGKVLGKFVSLEGFAQPVAVFLGVPFAKPPLGSLRFAPPQPAESWSHVKNTTSYPPMCSQDAVSGHMLSELFTNRKENIPLKFSEDCLYLNIYTPADLTKRGRLPVMVWIHGGGLMVGGASTYDGLALSAHENVVVVTIQYRLGIWGFFSTGDEHSRGNWGHLDQVAALRWVQDNIANFGGDPGSVTIFGESAGGQSVSILLLSPLTKNLFHRAISESGVALLSSLFRKNTKSLAEKIAIEAGCKTTTSAVMVHCLRQKTEEELMEVTLKMKFMALDLVGDPKENTAFLTTVIDGVLLPKAPAEILAEKKYNMLPYMVGINQQEFGWIIPMQMLGYPLSEGKLDQKTATELLWKSYPIVNVSKELTPVATEKYLGGTDDPVKKKDLFLDMLADLLFGVPSVNVARHHRDAGAPTYMYEYRYRPSFSSDMRPKTVIGDHGDEIFSVLGAPFLKEGATEEEIKLSKMVMKYWANFARNGNPNGEGLPQWPAYDYKEGYLQIGATTQAAQKLKDKEVAFWTELWAKEAARPRETEHIEL
- complexation with bi-specific antibody (HPLC) [11]: completely complexed
- enzymatic activity [12]: 115 enzyme units/mg protein
